In data set [1] the test system is pituitary POMC cells overexpressing zPttg. Briefly: In vivo treatment of Tg:Pomc-Pttg; POMC-eGFP zebrafish embryos with CDK inhibitors, pituitary POMC-eGFP fluorescence. As to conditions: for reduction in pituitary POMC-eGFP expression compared with controls: 50 μM in embryo medium, control 0.2% DMSO. As for the experimental part:
(§1) Results represent one of three similar experiments.
(§2) WT and transgenic embryos were examined at various developmental stages under a fluorescein isothiocyanate filter on an Axioplan-2 microscope (Carl Zeiss). Live embryo images were generated with an Axiocam video system (Carl Zeiss). Fluorescence intensity of POMC-GFP-positive cells was measured by the area of interest function in Openlab software (Improvision). For confocal imaging, images were captured in a Z-series by using a TCS SP confocal microscope (Leica Microsystems). GFP was detected at a spectral range from 507 to 550 nm, RFP from 585 to 690 nm, and DAPI from 460 to 480 nm. Images were prepared using Leica LCS lite, Volocity 5.2 (Improvision), and Photoshop 7.0 (Adobe). Pituitary GFP and RFP intensity and area were measured using Volocity 5.2 (Improvision). Lipid Staining Liver cryosections were stained with oil redO (Sigma-Aldrich) per manufacturer's protocol. Lipid staining was scored based upon area distribution (>50% positive cells, 2 points; <50% but >10%, 1 point; <10%, 0 points) and intensity [strong, large (size of cell) lipid droplets, 2 points; weak, small (smaller than cell size) lipid droplets, 1 point; negative, 0 points].

Data set [2] relates to AtT20 cells. Put plainly: ACTH radioimmunoassay of AtT20 culture medium. As to conditions: AtT20 cells vs vehicle.
For data set [3], the system named is mouse pituitary ACTH-secreting tumor AtT20 cell line. Put plainly: Wst-1 cell proliferation assay in AtT20 cells. As to conditions: 1−2×10^−5 M.
Data set [4] concerns zebrafish embryos. Put plainly: Gross morphology / development of zebrafish embryos exposed to CDK inhibitors. As to conditions: 50 μM, starting at 18 hpf, observed by 40 hpf.
Procedure: (C) In vivo treatment of Tg:Pomc-Pttg; Pomc-eGFP embryos with different small molecule CDK inhibitors (50 μM) or 0.2% DMSO as control from 18-40 hpf. 100-150 embryos were treated with each compound at a time. Representative images of live embryos are shown with gross morphology (right panels) and pituitary Pomc-GFP positive cells at higher magnification (left panels) at 40 hpf. […] (D) Relative expression of pituitary Pomc-eGFP fluorescence were analyzed using Velocity 5.2 (Improvision) (mean±SE of relative expression, n=7 randomly picked embryos from 100-150 embryos of each group). […] Results represent one of three similar experiments. Scale bar, 50 μm. *, p<0.02; **, p<0.000005.
Tg:Pomc-Pttg; POMC-eGFP double transgenic embryos were exposed to each compound added to the embryo culture medium.
Dexamethasone (Sigma) was dissolved in distilled water, R-roscovitin (Selleck Chemicals), flavopiridol (Selleck Chemicals), PD0332991 (Selleck Chemicals), olomoucine (Cayman Chemical Co.), and CAY10578 (Cayman Chemical Co.) were dissolved in 0.2% DMSO at a stock concentration of 1 mM, and diluted in fish medium immediately before adding to live embryos at the stages indicated.
Data set [5] deals with AtT20 corticotroph tumor xenografts. Put plainly: AtT20 corticotroph tumor xenograft in athymic nude mice, tumor growth and tumor protein expression. As to conditions: 150 mg/kg oral gavage twice daily.
Procedure: (§3) Athymic nude mice were subcutaneously inoculated with corticotroph tumor AtT20 cells (1×10^5 cells). […] (D) Blood was collected from each animal for measurement of plasma ACTH and serum corticosterone levels.
Animal experiments were performed in accordance with Cedars-Sinai Institutional Animal Care and Use committee guidelines. Mouse corticotroph tumor AtT20 cells (−1×10^5) were inoculated s.c. into 6-wk-old female nu/nu mice. […] After 3 wk of treatment, mice were killed by CO2 inhalation, and tumors were dissected, weighted, and snapfrozen for further analysis.
Protein samples were prepared in RIPA buffer (Sigma), separated on NuPAGE Novex Bis-Tris Gels (Invitrogen), and transferred onto PVDF membrane (Millipore) before blotting with primary antibody [cyclin E, 1:500 (Abcam); PTTG, 1:1,000 (Abcam); β-actin, 1:5,000 (Sigma); and p21, 1:1,000, p27, 1:500, p57, 1:1,000, pRb821, 1:1,000 (Santa Cruz Biotechnology)] at 4° C. overnight. After washes with 0.5% Tween-20 in Tris-buffered saline solution, membranes were incubated with horseradish peroxidaselinked secondary antibody (GE Healthcare) and developed using ECL Western blotting detection reagents (GE Healthcare).
Data set [6] has as its system AtT20 cells. Put plainly: Senescence (β-galactosidase expression) in AtT20 cells. The conditions noted are these: 10 μM, 48 hours.
In data set [7] the test system is AtT20 corticotroph tumor xenografts. Briefly: Plasma ACTH and serum corticosterone in AtT20 xenograft-bearing nude mice. As to conditions: 150 mg/kg oral gavage twice daily, three weeks.
Source text: as §3
Mouse corticotroph tumor AtT20 cells (−1×10^5) were inoculated s.c. into 6-wk-old female nu/nu mice. […] After 3 wk of treatment, mice were killed by CO2 inhalation, and tumors were dissected, weighted, and snapfrozen for further analysis.
In data set [8] the test system is pituitary lactotrophs (Prl-RFP). Put plainly: In vivo treatment of Tg:Pomc-Pttg; Prl-RFP zebrafish embryos, pituitary Prl-RFP fluorescence. The conditions noted are these: 50 μM, 18 to 48 hpf. The protocol: as §1, §2
The nature of data set [9]: Insulin tolerance test in adult zebrafish. The format is in vivo. The conditions noted are these: 0.1 unit/100 mg. The protocol: Zebrafish glucocorticoid steroidogenic cells are arranged as epithelial cell layers (arrowheads) in association with the renal head posterior cardinal vein (PCV) 28. […] Glucose tolerance tests were performed in 72 Tg:pomc-pttg and WT fish. Zebrafish was given ad lib feeding of regular diet for one hour (grey column) after 16 hours of fasting. Blood glucose was measured at different time points after re-feeding. Glucose levels are presented as mean±SE (AUC, p<0.0001). (C) Insulin tolerance tests in Tg:pomc-pttg and WT fish. […] (D) Oil red O(ORO) staining of liver sections reveal hepatic lipid accumulation in Tg:Pomc-pttg transgenics. (E) Area distribution and intensity of hepatic ORO staining were scored (mean±SE, *, p<0.01). […] Top, Tg:Pomc-pttg zebrafish (Tg) with gross pericardial fluid accumulation (arrow) compared with wildtype (WT) at 24 months. […]
To determine the metabolic impact of hypercortisolism in Tg:Pomc-Pttg zebrafish, adult Tg:Pomc-Pttg and WT fish were subjected to 16 hour fasting followed by ad libitum feeding of regular diet for one hour. […] Because teleost fish are glucose intolerant due to blunted peripheral responses to insulin^29, and glucocorticoids induce insulin resistance in mammals, insulin sensitivity was assessed by testing blood glucose responses to intraperitoneally administered insulin. […]

Setting [10] is: 18-40 hpf, Tg:Pomc-Pttg, POMC-eGFP embryos.

Entries after “also recorded” stand apart in the source; their conditions may differ. A value given as a limit tells only on which side of the number the result lay.

For the molecule `O=C1NCCc2[nH]c(-c3ccncc3)cc21` [CAY10572], the “change in pituitary POMC-eGFP expression compared with controls” value in [1] (50 μM, 18-40 hpf, Tg:Pomc-Pttg, POMC-eGFP embryos) was “no significant change”.
As to `CC[C@H](CO)Nc1nc(NCc2ccccc2)c2ncn(C(C)C)c2n1` [R-roscovitine], the “ACTH concentration in culture medium (RIA)” value in data set [2] is “decreased”. For the same molecule, the “number of viable cells (Wst-1)” value in data set [3] (at 24 and 48 hours) is recorded as “decreased number of viable cells”. The cell number result in [3] (by 24 hours) is on record as “decreased cell number”. Also, in data set [4], the “embryonic growth / development of treated embryos” value (from here on “embryonic growth / development”) is on record as “no apparent growth defect”. Moreover, in data set [5] (3 weeks), the “numbers of PCNA and ACTH co-expressing cells in tumors” value is reported as “decreased”. For the same molecule, in [5] (5 days per week, 3 weeks), the tumor volumes result is listed as “decreased”. The “weight reduction of dissected tumor xenografts” value in data set [5] (5 days per week, three weeks) is about 50%. For the same molecule, the “weight of dissected tumor xenografts (mean±S.E.)” value in data set [5] (5 days per week, three weeks, vehicle 40.0±4.7 mg, n=13-14) is 21.0 ± 2.6 mg. In data set [5] (three weeks), the “ACTH protein expression in tumor specimens (Western-blot and immunohistochemistry)” value was “suppressed”; the “PCNA protein expression in tumor specimens (Western-blot and immunohistochemistry)” value is recorded as “suppressed”. Further, in [6], the “β-galactosidase expression (senescence)” value was “increased”. Moreover, in data set [7], the “reduction in plasma ACTH levels” value is reported as over 50% and the “reduction in serum corticosterone levels” value is about 50%. The “effect on Prl-RFP expression” value in data set [8] is recorded as “no effect”. The “reduction in pituitary POMC-eGFP expression compared with controls” value in data set [1] (setting [10]) is “approximately 40%”. The “reduction of POMC-eGFP expression compared with control” value in data set [1] (50 μM, 18 to 48 hpf, Tg:Pomc-Pttg, POMC-eGFP embryos) is given as “greater than 50%”.
With `CN1CC[C@@H](c2c(O)cc(O)c3c(=O)cc(-c4ccccc4Cl)oc23)[C@H](O)C1` [flavopiridol, 2-(2-chlorophenyl)-5,7-dihydroxy-8-((3S,4S)-3-hydroxy-1-methylpiperidin-4-yl)-4H-chromen-4-one], the “embryonic growth / development” value in data set [4] is given as “early developmental defect; also recorded: retarded early embryonic development”.
Take `Cn1cnc2c(NCc3ccccc3)nc(NCCO)nc21` [olomoucine]: the “embryonic growth / development” value in data set [4] is “no apparent growth defect”. The “reduction in pituitary POMC-eGFP expression compared with controls” value in [1] (setting [10]) is recorded as “approximately 20%”. Further, the “relative expression of pituitary POMC-eGFP fluorescence (mean±S.E.)” value in data set [1] (50 μM, 18-40 hpf, n=7, control 1.0±0.08) is 0.8±0.07.
As for “insulin: insulin injected intraperitoneally for insulin tolerance test”, the “blood glucose response to intraperitoneal insulin” value in data set [9] (Tg:Pomc-Pttg fish, up to 90 minutes after injection) was “no significant change”; in data set [9] (WT fish, 30 minutes after injection), “brisk hypoglycemic response”.

These data come from US20130171073A1 (CEDARS-SINAI MEDICAL CENTER, priority 2010, published 2013).
